Measurements taken from ChEMBL document CHEMBL5046259, “Cannabinoids Block Cellular Entry of SARS-CoV-2 and the Emerging Variants” (J Nat Prod, 2022).
≈ marks a conversion by molar mass, not a printed value. Calls of active or inactive are those of the source. No cut-off for these calls is given here.

Assays:
SARS-CoV-2 [1] = assay: Antiviral activity against SARS-CoV-2 infected in African green monkey Vero E6 cells assessed as inhibition of viral entry at 25 ug/ml measured after 24 hrs post infection by fluorescence microscopy; type: functional, organism-based; details: Severe acute respiratory syndrome coronavirus 2, dose 25.0 µg/ml
Caco-2 = assay: Cytotoxicity against human Caco-2 cells by resazurin assay; type: toxicity, cell-based
SARS-CoV-2 [2] = assay: Antiviral activity against SARS-CoV-2 isolate USA-WA1/2020 strain infected in African green monkey Vero E6 cells assessed as inhibition of viral entry incubated for 1 hr prior to infection and measured after 48 hrs by Focus forming assay; type: functional, organism-based; details: Severe acute respiratory syndrome coronavirus 2, USA-WA1/2020, Vero C1008
Vero C1008 = assay: Cytotoxicity against African green monkey Vero E6 cells by resazurin assay; type: toxicity, cell-based; details: chlorocebus sabaeus
HEK-293T = assay: Cytotoxicity against human HEK293T cells overexpressing ACE2 by resazurin assay; type: toxicity, cell-based

Structure (SMILES)	Activity (SARS-CoV-2 [1])	Activity (Caco-2)	IC50 (SARS-CoV-2 [2])	Activity (Vero C1008)	Activity (HEK-293T)
C=C(C)[C@@H]1CCC(C)=C[C@H]1c1c(O)cc(CCCCC)c(C(=O)O)c1O [CANNABIDIOLIC ACID]	Active	Non-Toxic	24 µg/mL (≈ 66.9 µM)	Non-Toxic	Non-Toxic
CCCCCc1cc(O)c(C/C=C(\C)CCC=C(C)C)c(O)c1C(=O)O [CANNABIGEROLIC ACID]	Active	Non-Toxic	37 µg/mL (≈ 103 µM)	Non-Toxic	Non-Toxic
